Data as given in patent EP4537820A1, “COMPOUND AND COMBINATIONS COMPRISING SAID COMPOUND TO IMPROVE IMMUNE RESPONSE” (Institut Gustave-Roussy, priority 2023, dated 2025).

Tested on: T1, 20S proteasome
T1 construct: purified 20S proteasome from human erythrocytes; purchased Biotechne E-360-050; host or cells: human erythrocytes
Assay: Thermal Shift Assay (nanoDSF) with 20S
Type: binding, human
Conditions: 20S 50nM, compound at 100X (5µM, 0,1% DMSO)
Procedure: Thermal shift assay was carried out with nano differential scanning fluorimetry (nanoDSF) using the Tycho NT.6 from Nanotemper and was performed at the I2BC platform (Gif-sur-Yvette). Samples were prepared in a final volume of 25µL in a 96-well plate prior to be loaded on the Tycho capillaries. Proteins were diluted in activity buffer (20mM Tris-HCl pH 7.4 and 20mM NaCl). After optimisation, REGγ concentration was set to 500nM and 20S concentration to 50nM. Compounds concentrations were determined as ratios to protein concentration and to stay below 0,5% of DMSO; accordingly, compounds with REGγ were tested at 40X (20µM, 0,4% DMSO) and at 100X (5µM, 0,1% DMSO) with 20S. A thermal ramp was applied from 20 to 95°C and fluorescence was followed at 350nm and 330 nm, measuring intrinsic fluorescence of the proteins from tryptophan and tyrosine residues. Binding was detected as a shift in the inflection temperature (Ti) compared to the DMSO control.
To assess the efficacy of molecule 58 in directly binding to REGγ, inventors conducted a thermal shift assay (TSA). TSA leverages the property of proteins to undergo unfolding at specific temperatures, and the interaction with a ligand can alter the thermal stability, leading to a shift in the unfolding temperature. In their study, inventors examined how the compound 58 interacted with REGγ and monitored the change in melting temperature (ΔTm).

Cc1ccc(N=Nc2ccc(C)cc2NC(=O)Nc2ccccc2F)cc1 [compound 58]
change in melting temperature (ΔTm): no significant change in ΔTm
